Tests used:
Type in all cases: cell-based
PAR2 (HT-29 cells) [1] = molecular target: T1, PAR2 (HT-29 cells) (Homo sapiens, UniProt P55085); experiment: Ca FLIPR TETRA assay, ANTAGONIST mode, activator 8 μM SLIGKV; conditions: HT-29 cells; activator 8 μM SLIGKV; Method A: maximal concentration of antagonist 0.1, 1 or 2 μM
T1 construct: host or cells: HT-29
T1 sequence (P55085 26-397): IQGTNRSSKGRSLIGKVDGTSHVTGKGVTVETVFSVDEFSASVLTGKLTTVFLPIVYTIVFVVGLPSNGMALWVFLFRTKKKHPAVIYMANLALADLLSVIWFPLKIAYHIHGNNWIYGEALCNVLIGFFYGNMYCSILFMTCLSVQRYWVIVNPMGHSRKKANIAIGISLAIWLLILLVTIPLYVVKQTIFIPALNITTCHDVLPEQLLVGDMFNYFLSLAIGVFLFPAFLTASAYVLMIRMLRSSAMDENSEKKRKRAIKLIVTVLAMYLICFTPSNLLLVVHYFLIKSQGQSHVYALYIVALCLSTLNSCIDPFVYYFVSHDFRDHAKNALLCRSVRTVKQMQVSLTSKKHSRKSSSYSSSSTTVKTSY
Method in brief: (§1)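 Fluorescent Ca2+ dye (calcium 5) loading of overnight-plated HT-29 cells preceded compound addition and a 30 min room-temperature incubation. Responses to the specified activator concentration were then read by FLIPR Tetra in the same plate.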

PAR2 (HT-29 cells) [2] = molecular target: T1, PAR2 (HT-29 cells); experiment: Ca FLIPR TETRA assay, ANTAGONIST mode, activator 3.1 U/mL trypsin; conditions: HT-29 cells; activator 3.1 U/mL trypsin; Method A: maximal concentration of antagonist 0.1, 1 or 2 μM
Method in brief: as §1

[3] = system: Thrombin-stimulated Ca2+ response in HT-29 cells; experiment: Ca FLIPR TETRA assay, ANTAGONIST mode, activator 1 U/mL Thrombin; conditions: HT-29 cells, activator 1 U/mL Thrombin
Method in brief: as §1

[4] = system: UTP-stimulated Ca2+ response in HT-29 cells; experiment: Ca FLIPR TETRA assay, ANTAGONIST mode, activator 0.6 μM UTP; conditions: HT-29 cells, activator 0.6 μM UTP
Method in brief: as §1

Row | SMILES | IC50 (PAR2 (HT-29 cells) [1]) [nM] | IC50 (PAR2 (HT-29 cells) [2]) [nM] | IC50 ([3]; Homo sapiens) [nM] | IC50 ([4]; Homo sapiens) [nM] | IC50 [3] [nM] | IC50 [4] [nM]
1 | CC(C)(C)c1cc(-c2ccc(Cl)c(F)c2)nc2cc(C(=O)N3CCN(c4ccc(C(=O)O)cn4)C(=O)C3(C)C)oc12 [Example I-405] | 1.8 | 1.7 | 750 | 580 | – | –
2 | CC(C)(C)c1cc(-c2ccc(Cl)c(F)c2)nc2cc(C(=O)N3CCN(c4ccn[nH]4)C(=O)C3(C)C)oc12 [Example I-406] | 10 | 8.8 | > 2000 | > 2000 | – | –
3 | CC(C)(C)c1cc(-c2ccc(Cl)cc2)nc2cc(C(=O)N3CCN(c4ccn[nH]4)C(=O)C3(C)C)oc12 [Example I-407] | 17 | 17 | > 2000 | > 2000 | – | –
4 | Cc1cc(C(=O)O)nc(N2CCN(C(=O)c3cc4nc(C5CCC(C)(C)CC5)cc(C(C)(C)C)c4o3)C(C)(C)C2)n1 [Example I-408] | 0.7 | 1 | 860 | 510 | – | –
5 | Cc1cc(C(=O)O)nc(N2CCN(C(=O)c3cc4nc(-c5ccc(Cl)c(F)c5)cc(C(C)(C)C)c4o3)C(C)(C)C2=O)n1 [Example I-409] | 0.3 | 0.5 | – | – | > 1010 | 560
6 | Cc1nc(N2CCN(C(=O)c3cc4nc(-c5ccc(Cl)c(F)c5)cc(C(C)(C)C)c4o3)C(C)(C)C2)ccc1C(=O)O [Example I-411] | 0.2 | 0.3 | > 2000 | > 2000 | – | –
7 | CC(C)(C)c1cc(-c2ccc(Cl)c(F)c2)nc2cc(C(=O)N3CCN(c4ccncn4)CC3(C)C)oc12 [Example I-412] | 13.1 | 15 | > 2000 | > 2000 | – | –
8 | CC1(C)CCC(c2cc(C(C)(C)C)c3oc(C(=O)N4CCN(c5ccc(C(=O)O)cn5)CC4(C)C)cc3n2)CC1 [Example I-413] | 0.6 | 0.8 | 810 | 810 | – | –
9 | CC1(C)CCC(c2cc(C(C)(C)C)c3oc(C(=O)N4CCN(c5ccnc(C(=O)O)n5)CC4(C)C)cc3n2)CC1 [Example I-414] | 8.5 | 16 | > 2000 | > 2000 | – | –
10 | CC1(C)CCC(c2cc(C(C)(C)C)c3oc(C(=O)N4CCN(C(=O)CC(C)(C)C(=O)O)CC4(C)C)cc3n2)CC1 [Example I-416] | 0.4 | 0.7 | > 1630 | > 1630 | – | –
11 | CC(C)(CC(=O)N1CCN(C(=O)c2cc3nc(-c4ccc(Cl)c(F)c4)cc(C(C)(C)C)c3o2)C(C)(C)C1)C(=O)O [Example I-417] | 0.2 | 0.4 | > 1630 | > 1630 | – | –
12 | CC1(C)CCC(c2cc(C(C)(C)C)c3oc(C(=O)N4CCN(C(=O)CCC(=O)O)CC4(C)C)cc3n2)CC1 [Example I-418] | 2.1 | 5.6 | > 1250 | > 1250 | – | –
13 | CC(C)(C)c1cc(-c2ccc(Cl)c(F)c2)nc2cc(C(=O)N3CCN(C(=O)CCC(=O)O)CC3(C)C)oc12 [Example I-419] | 1.1 | 3 | > 1250 | > 1250 | – | –
14 | CC(C)(C)c1cc(-c2ccc(F)cc2)nc2cc(C(=O)N3CCN(c4cnc(C(=O)O)cn4)CC3(C)C)oc12 [Example I-421] | 1.5 | 3.4 | – | – | 600 | 750
15 | CC(C)(C)c1cc(-c2ccc(Cl)c(F)c2)nc2cc(C(=O)N3CCC(C(=O)[C@H]4CC[C@@](C)(C(=O)O)CC4)CC3(C)C)oc12 (stereo partly shown) [Example I-422] | 0.2 | 0.3 | – | – | 2000 | 1500
16 | Cc1oc(C2CCN(C(=O)c3cc4nc(C5CCC(C)(C)CC5)cc(C(C)(C)C)c4o3)C(C)(C)C2)nc1C(=O)O (stereo not shown) [Example I-425] | 0.3 | 0.4 | – | – | > 2000 | > 2000
17 | CC1(C)CCC(c2cc(C(C)(C)C)c3oc(C(=O)N4CCC(c5ncc(C(=O)O)cn5)CC4(C)C)cc3n2)CC1 (stereo not shown) [Example I-427] | 0.5 | 0.8 | – | – | 420 | 520

Other lines, results leading:

Row | IC50 (PAR2 (HT-29 cells) [1]) [nM] | IC50 (PAR2 (HT-29 cells) [2]) [nM] | IC50 ([3]; Homo sapiens) [nM] | IC50 ([4]; Homo sapiens) [nM] | IC50 [3] [nM] | IC50 [4] [nM] | SMILES
18 | 0.3 | 0.5 | 960 | 710 | – | – | Cc1cc(C(=O)O)nc(N2CCN(C(=O)c3cc4nc(-c5ccc(Cl)cc5)cc(C(C)(C)C)c4o3)C(C)(C)C2)n1 [Example I-401]
19 | 21 | 15 | > 2000 | > 2000 | – | – | CC(C)(C)c1cc(-c2ccc(Cl)cc2)nc2cc(C(=O)N3CCN(c4cnccn4)CC3(C)C)oc12 [Example I-402]
20 | 23 | 24 | > 2000 | > 2000 | – | – | Cc1ccnc(N2CCN(C(=O)c3cc4nc(-c5ccc(Cl)cc5)cc(C(C)(C)C)c4o3)C(C)(C)C2)n1 [Example I-403]
21 | 25 | 16 | > 2000 | > 2000 | – | – | CC(C)(C)c1cc(-c2ccc(Cl)cc2)nc2cc(C(=O)N3CCN(c4ncccn4)CC3(C)C)oc12 [Example I-404]
22 | 0.6 | 0.9 | – | – | > 1010 | > 1010 | Cc1nc(N2CCN(C(=O)c3cc4nc(-c5ccc(Cl)cc5)cc(C(C)(C)C)c4o3)C(C)(C)C2)ncc1C(=O)O [Example I-410]
23 | 19 | 19 | > 2000 | > 2000 | – | – | CC(C)(C)c1cc(-c2ccc(Cl)cc2)nc2cc(C(=O)N3CCN(c4ccnc(C(=O)O)n4)CC3(C)C)oc12 [Example I-415]
24 | 4.6 | 9.8 | > 1250 | > 1250 | – | – | CC(C)(C)c1cc(-c2ccc(Cl)cc2)nc2cc(C(=O)N3CCN(C(=O)CCC(=O)O)CC3(C)C)oc12 [Example I-420]
25 | 0.4 | 0.7 | > 2000 | > 2000 | – | – | CC(C)(C)c1cc(-c2ccc(Cl)cc2)nc2cc(C(=O)N3CCN(C(=O)[C@H]4CC[C@@](C)(C(=O)O)CC4)CC3(C)C)oc12 [Example I-423]
26 | 0.1 | 0.3 | – | – | 1800 | 1200 | CC(C)(C)c1cc(-c2ccc(Cl)c(F)c2)nc2cc(C(=O)N3CCC(c4nc(C(=O)O)cs4)CC3(C)C)oc12 (stereo not shown) [Example I-424]
27 | 0.1 | 0.1 | – | – | 1800 | 1300 | CC(C)(C)c1cc(-c2ccc(Cl)cc2)nc2cc(C(=O)N3CCC(c4nc(C(=O)O)cs4)CC3(C)C)oc12 (stereo not shown) [Example I-426]
28 | 0.6 | 0.7 | – | – | 1600 | 1700 | CC(C)(C)c1cc(-c2ccc(Cl)c(F)c2)nc2cc(C(=O)N3CCC(c4ncc(C(=O)O)cn4)CC3(C)C)oc12 (stereo not shown) [Example I-428]
29 | 0.4 | 0.5 | – | – | 400 | 440 | CC(C)(C)c1cc(-c2ccc(Cl)cc2)nc2cc(C(=O)N3CCC(c4ncc(C(=O)O)cn4)CC3(C)C)oc12 (stereo not shown) [Example I-429]
30 | 0.6 | 0.9 | – | – | > 2000 | > 2000 | Cc1oc(C2CCN(C(=O)c3cc4nc(-c5ccc(Cl)c(F)c5)cc(C(C)(C)C)c4o3)C(C)(C)C2)nc1C(=O)O (stereo not shown) [Example I-430]
31 | 0.7 | 0.9 | – | – | > 2000 | > 2000 | Cc1oc(C2CCN(C(=O)c3cc4nc(-c5ccc(Cl)cc5)cc(C(C)(C)C)c4o3)C(C)(C)C2)nc1C(=O)O (stereo not shown) [Example I-431]

Reference: US20180057505A1, “BICYCLIC HETEROARYL COMPOUNDS USEFUL AS INHIBITORS OF THE PAR-2 SIGNALING PATHWAY” (VERTEX PHARMACEUTICALS INCORPORATED, priority 2015, published 2018)
